Like-named read-outs stand apart in the source and are kept apart here.
What was measured:
Assay type in all cases: cell-based
[1] = Viability of FS non malignant fibroblastic cells, XTT test; conditions: FS cells (non-malignant fibroblastic cell line), Control DMSO = 100%, read-out: percentage of viable cells, FS
Experimental: (§1) The effect of the compounds Z522-XXX on the growth profile of cancer cells which express Fer was tested. The cells that were tested were: the colon cancer cell lines HT29 and HCT 116, RKO. The effect of each of the compounds on FS cells, a non malingnant fibroblastic cell line, was also studied.
(§2) Generally, cells were seeded in 96 wells microplates and were left to grow untreated overnight. Each of the compounds was dissolved in DMSO and was then added to each well in a final concentration of 5 μM. The concentration of DMSO in each well was 0.4% v/v. Untreated cells and cells subjected to 0.4% DMSO alone, served as controls. The percentage of viable cells in each well was determined 96 hours after compounds addition, using the XTT test (Berridge, M. V. et al, 2005).

[2] = system: colon cancer cell line HCT 116; test: Growth profile / viability of HCT116 colon cancer cells, XTT test; conditions: Homo sapiens, HCT-116, 96 h, Control DMSO = 100%, read-out: percentage of viable cells, HCT116
Experimental: as §1, §2

[3] = system: colon cancer cell line RKO; test: Growth profile / viability of RKO colon cancer cells, XTT test; conditions: 96 h, Control DMSO = 100%, read-out: percentage of viable cells, RKO
Experimental: as §1, §2

[4] = system: colon cancer cell line HT29; test: Growth profile / viability of HT29 colon cancer cells, XTT test; conditions: Homo sapiens, HT-29, 96 h, Control DMSO = 100%, read-out: percentage of viable cells, HT29
Experimental: as §1, §2

Compound | viability at 96 h, 5 µM ([1]; first FS column) | viability at 96 h, 5 µM ([1]; second FS column) | viability at 5 µM ([2]; first HCT116 column) | viability at 5 µM ([2]; second HCT116 column) | viability at 5 µM ([3]; first RKO column) | viability at 5 µM ([3]; second RKO column) | viability at 5 µM ([4]; first HT29 column) | viability at 5 µM ([4]; second HT29 column)
CC1CCCN(c2ccc(-c3cn4nc(N5CCC(C(=O)N6CCN(C)CC6)CC5)sc4n3)cc2)C1 (centres unmarked) [Compound Z522-0166, 2-{4-[(4-methylpiperazin-1-yl)carbonyl]-piperidin-1-yl}-6-[4-(3-methyl-piperidin-1-yl)-phenyl]imidazo[2,1-b][1,3,4]-thiadiazole] | 101% | 92% | 30% | 23% | 6% | 6% | 4% | 4%
CC(C)c1ccc(-c2cn3nc(N4CCC(C(=O)N(C)CC(=O)NCCN(C)C)CC4)sc3n2)cc1 [Compound Z522-0239, N^4-(2-[2-(dimethylamino)ethyl]amino-2-oxoethyl)-1-[6-(4-isopropylphenyl)imidazo[2,1-b][1,3,4]thiadiazol-2-yl]-N^4-methyl-4-piperidinecarboxamide] | 83% | 96% | 80% | 45% | 1% | 1% | 3% | 2%
CN1CCN(C(=O)C2CCN(c3nn4cc(-c5ccc(N(C)CCO)cc5)nc4s3)CC2)CC1 [Compound Z522-0177, 2-{methyl[4-(2-{4-[(4-methyl-piperazin-1-yl)-carbonyl]piperidin-1-yl}imidazo-[2,1-b][1,3,4]-thiadiazol-6-yl)-phenyl]amino} ethanol] | 120% | 116% | 107% | 104% | 97% | 96% | 116% | 121%
Cc1ccc(C)n1CCN1CCN(C(=O)C2CCN(c3nn4cc(-c5ccc(C(C)C)cc5)nc4s3)CC2)CC1 [Compound Z522-0232, 2-[4-({4-[2-(2,5-dimethyl-1H-pyrrol-1-yl)ethyl]piperazin-1-yl}carbonyl)piperidin-1-yl]-6-(4-isopropylphenyl) imidazo[2,1-b][1,3,4]thiadiazole] | 106% | 93% | 79% | 68% | 35% | 38% | 20% | 22%
CN1CCN(C(=O)C2CCN(c3nn4cc(-c5ccc(N6CCSCC6)cc5)nc4s3)CC2)CC1 [Compound Z522-0164, 2-{4-[(4-methylpiperazin-1-yl)carbonyl]-piperidin-1-yl}-6-(4-thiomorpholin-4-ylphenyl)-imidazo[2,1-b]-[1,3,4]thiadiazole] | 104% | 95% | 80% | 97% | 60% | 63% | 50% | 42%
O=C(C1CCN(c2nn3cc(-c4ccc(Cl)cc4)nc3s2)CC1)N1CCCN(c2ncccn2)CC1 [Compound Z522-0219, 6-(4-chlorophenyl)-2-{4-[(4-pyrimidin-2-yl-1,4-diazepan-1-yl)carbonyl]piperidin-1-yl}imidazo[2,1-b][1,3,4]thiadiazole] | 89% | 94% | 75% | 67% | 48% | 45% | 91% | 95%
CC(C)c1ccc(-c2cn3nc(N4CCC(C(=O)N5CCN(c6ccccn6)CC5)CC4)sc3n2)cc1 [Compound Z522-0223, 6-(4-isopropyl-phenyl)-2-{4-[(4-pyridin-2-ylpiperazin-1-yl)carbonyl]piperidin-1-yl}imidazo[2,1-b][1,3,4]thiadiazole] | 87% | 92% | 75% | 80% | 64% | 81% | 83% | 89%
Cc1c(-c2ccc(N(C)C)cc2)nc2sc(N3CCC(C(=O)N4CCN(C)CC4)CC3)nn12 [Compound Z522-0179, N,N-dimethyl-4-(5-methyl-2-{4-[(4-methyl-piperazin-1-yl)carbonyl]piperidin-1-yl}imidazo-[2,1-b][1,3,4]-thiadiazol-6-yl)-aniline] | 91% | 117% | 101% | 108% | 109% | 103% | 103% | 100%
Cc1c(-c2ccc(N3CCN(C)CC3)cc2)nc2sc(N3CCC(C(=O)N4CCN(C)CC4)CC3)nn12 [Compound Z522-0180, 5-methyl-2-{4-[(4-methyl-piperazin-1-yl)carbonyl]piperidin-1-yl}-6-[4-(4-methylpiperazin-1-yl)phenyl]-imidazo[2,1-b]-[1,3,4]thiadiazole] | 101% | 101% | 94% | 105% | 95% | 103% | 89% | 90%
CN1CCN(C(=O)CN2CCN(C(=O)C3CCN(c4nn5cc(-c6ccc(Cl)cc6)nc5s4)CC3)CC2)CC1 [Compound Z522-0215, 6-(4-chlorophenyl)-2-[4-({4-[2-(4-methylpiperazin-1-yl)-2-oxoethyl]piperazin-1-yl}carbonyl)piperidin-1-yl]imidazo[2,1-b][1,3,4]thiadiazole] | 85% | 109% | 63% | 58% | 6% | 10% | 14% | 11%
O=C(C1CCN(c2nn3cc(-c4ccc(Cl)cc4)nc3s2)CC1)N1CCCC(CN2CCOCC2)C1 (centres unmarked) [Compound Z522-0214, 6-(4-chlorophenyl)-2-(4-{[3-(morpholin-4-ylmethyl)piperidin-1-yl]carbonyl}piperidin-1-yl)imidazo[2,1-b][1,3,4]thiadiazole] | 104% | 90% | 70% | 71% | 24% | 23% | 53% | 57%
CC(C)c1ccc(-c2cn3nc(N4CCC(C(=O)N5CCN(CC(=O)NCCN(C)C)CC5)CC4)sc3n2)cc1 [Compound Z522-0241, N-[2-(dimethylamino)ethyl]-2-[4-({1-[6-(4-isopropylphenyl)imidazo[2,1-b][1,3,4]thiadiazol-2-yl]piperidin-4-yl}carbonyl)piperazin-1-yl]acetamide] | 78% | 88% | 33% | 36% |  | 0% | 0% | 0%
CN1CCN(C(=O)C2CCN(c3nn4cc(-c5ccc(N6CCN(C)CC6)cc5)nc4s3)CC2)CC1 [Compound Z522-0160, 2-{4-[(4-methylpiperazin-1-yl)carbonyl]-piperidin-1-yl}-6-[4-(4-methyl-piperazin-1-yl)-phenyl]imidazo[2,1-b][1,3,4]-thiadiazole] | 101% | 104% | 105% | 108% | 92% | 109% | 117% | 91%
Cc1c(-c2ccc(N3CCCC(C)C3)cc2)nc2sc(N3CCC(C(=O)N4CCN(C)CC4)CC3)nn12 (stereo not drawn) [Compound Z522-0186, 5-methyl-2-{4-[(4-methyl-piperazin-1-yl)carbonyl]piperidin-1-yl}-6-[4-(3-methylpiperidin-l-yl)phenyl]-imidazo[2,1-b]-[1,3,4]thiadiazole] | 82% | 94% | 23% | 26% | 8% | 11% | 7% | 7%
CC(C)N1CCN(c2ccc(-c3cn4nc(N5CCC(C(=O)N6CCN(C)CC6)CC5)sc4n3)cc2)CC1 [Compound Z522-0174, 6-[4-(4-isopropyl-piperazin-1-yl)-phenyl]-2-{4-[(4-methylpiperazin-1-yl)carbonyl]-piperidin-1-yl}-imidazo[2,1-b]-[1,3,4]thiadiazole] | 117% | 113% | 105% | 124% | 93% | 97% | 77% | 78%
